# Data reported in publication PMC7915353, “Magnolol and Honokiol: Two Natural Compounds with Similar Chemical Structure but Different Physicochemical and Stability Properties” (Pharmaceutics, 2021).
# Read-outs that look alike come from different tables or passages of the source.
# Legend:
# [1] = Octanol-water distribution coefficients; assay type: physicochemical
# Experimental: Octanol–water distribution coefficients (Do/w) of magnolol and honokiol were determined by dissolving each compound in n-octanol, previously saturated with buffer (pH 1.2, 4.5, 6.8, and 7.4) or water, using glass vials. Buffers and water saturated with n-octanol were added to the corresponding vials, which were stirred for approximately 12 h at room temperature. Thereafter, the organic and the aqueous phases were separated by centrifuging the contents of the vials (2 min at 8000× g), and the concentration of each compound in both phases was determined by HPLC. The distribution coefficient was obtained as the quotient of the concentrations in the n-octanol and aqueous phases.
# [2] = Solubility in water, shake-flask method; assay type: physicochemical
# Experimental: (§1) The aqueous solubility was evaluated using the shake-flask method. Briefly, approximately 40 mg of magnolol or honokiol were added to a volume of 10 mL of distilled water. The mixture was kept in constant agitation for a total period of 24–48 h. Samples were taken at 24 and 48 h, centrifuged for 2 min at 10× g, and the concentration of the dissolved compound was determined in the supernatant using the analytical method described above. The 48-h sample was used to confirm that a dissolution equilibrium had been reached after 24 h of agitation.
# [3] = Stability at room temperature and 37 °C, 30 days, different pH; assay type: physicochemical; conditions: one month
# Experimental: The stability was also evaluated at room temperature and 37 °C (pH 1.2, 4.5, 6.8, 7.4, 8, 9, and 10) after an incubation period of 30 days.
# [4] = computer program; cited from earlier work
# [5] = pKa, graphical estimation from solubility-pH data; assay type: physicochemical
# Text: Among the components of Magnolia officinalis extracts with pharmacological activity, the most relevant are magnolol and honokiol. These natural compounds have attracted great interest in recent years for their potential therapeutic applications. However, a limitation in the use of magnolol and honokiol is their poor water solubility, which can greatly restrict gastrointestinal absorption and bioavailability. The water solubilities of magnolol and honokiol at room temperature obtained in this work were 12.5 and 50.6 µg/mL, respectively. However, the solubility of both compounds can be affected by the medium pH, since their molecules contain phenolic groups that can be ionized at alkaline pH values. […] Using the obtained solubility–pH data, the pKa of magnolol can be estimated from the intersection of the straight lines corresponding to pH 1.2–6.8 and to pH 7.4–10 in Figure 3 [36]. […] This discrepancy is probably due to the reduced number of values for the second straight line (pH 9 and 10). […] The different solubility values obtained in both studies could be related to the different agitation time, which was shorter in the study of Lee et al. (2 h vs. 24 h). […] In the case of honokiol, no data about its solubility at different pH values have been found in the available literature. […] Again, the discrepancy in these values could be related to the agitation time (4 h vs. 24 h).
# [6] = Solubility at different pH values at 37 °C, shake-flask; assay type: physicochemical; conditions: for solubility at 24 h: 37 °C, thermodynamic from solid
# Experimental: as §1
# Solubility at different pH values (1.2, 4.5, 6.8, 7.4, 8, 9, and 10) was determined at 37 °C after 24 h of agitation. The composition of the solutions is described in USP 35 [33] and the European Pharmacopeia 7.0 [34]. Briefly, the pH 1.2 solution was prepared with diluted hydrochloric acid, the solutions with pH values from 4.5 to 7.4 were phosphate buffers, and the solutions with pH 9 and 10 were borate buffers. Additionally, two pH 8 solutions were prepared using phosphate and borate buffers.
# [7] = Forced-degradation at 60 °C, different pH values; assay type: physicochemical; conditions: 24 h, 0.1 M HCl, 0.1 M NaOH, buffers pH 7.4-10
# Experimental: The stability of both natural products was evaluated in forced conditions at 60 °C using different pH values. Magnolol and honokiol solutions were prepared in 0.1 M HCl, 0.1 M NaOH, and buffers (pH 7.4, 8, 9, and 10). These solutions were kept at 60 °C for 24 h and the concentration of remaining magnolol and honokiol was determined.
# [8] = cited from earlier work
# [9] = Stability under oxidizing conditions (3% H2O2); assay type: physicochemical; conditions: 3% hydrogen peroxide, 24 h, room temperature, 37 °C and 60 °C
# Experimental: Additionally, stability was examined under oxidizing conditions using 3% H2O2. These samples were kept at room temperature, 37 °C, and 60 °C, for 24 h. The concentration of samples was expressed as a percentage of the initial concentration.
# [10] = cited from earlier work; remark: listed apart in the source
structure (smiles),measurement,setting,value
"C=CCc1ccc(O)c(-c2ccc(O)c(CC=C)c2)c1 [Honokiol, 3,5′-diallyl-4,2′-dihydroxybiphenyl]",logP,[1]; Log Do/w,4.27 ± 0.06
same,logP,[1]; log Po/w,~4.5
same,logD,[1]; pH 1.2,4.48 ± 0.05
same,logD,[1]; pH 4.5,4.5 ± 0.08
same,logD,[1]; pH 6.8,4.48 ± 0.04
same,logD,[1]; pH 7.4,4.28 ± 0.05
same,solubility at 24 h,[2],50.6 ± 1.2 µg/mL
same,Degradation,"[3]; pH 4.5 and 6.8, 37 °C",a decrease in the initial concentration was detected
same,"Concentration, percentage of the initial concentration","[3]; pH 7.4, 37 °C",29%
same,"Concentration, percentage of the initial concentration","[3]; pH 7.4, room temperature",84%
same,Degradation,"[3]; pH values lower than 7.4, room temperature",no degradation
same,"log Po/w, theoretical estimation",[4],4.20
same,pKa,[5],8.5
same,solubility at 24 h,"[6]; pH 10, aqueous buffer",~220 µg/mL
same,solubility at 24 h,[6],~75 µg/mL
"C=CCc1ccc(O)c(-c2cc(CC=C)ccc2O)c1 [Magnolol, 5, 5′-diallyl-2, 2′-dihydroxybiphenyl]",logP,"[1]; aqueous phase H2O, n-octanol, room temperature, mean ± SD, n = 4, read-out: Log Do/w",4.07 ± 0.09
same,logD,"[1]; aqueous phase pH 1.2, n-octanol, room temperature, mean ± SD, n = 4, read-out: Log Do/w",4.5 ± 0.1
same,logD,"[1]; aqueous phase pH 4.5, n-octanol, room temperature, mean ± SD, n = 4, read-out: Log Do/w",4.55 ± 0.11
same,logD,"[1]; aqueous phase pH 6.8, n-octanol, room temperature, mean ± SD, n = 4, read-out: Log Do/w",4.48 ± 0.06
same,logD,"[1]; aqueous phase pH 7.4, n-octanol, room temperature, mean ± SD, n = 4, read-out: Log Do/w",4.3 ± 0.08
same,logP,"[1]; from log Do/w values at the acidic pHs, read-out: log Po/w",~4.5
same,solubility at 24 h,"[2]; water, room temperature, preliminary solubility test, read-out: Solubility in water",12.5 ± 0.6 µg/mL
same,Stability at different pH values,[7],relatively stable
same,pKa (first value),[8],7.10
same,pKa (second value),[8],10.58
same,"log Po/w, theoretical estimation",[4],3.94
same,pKa,"[5]; intersection of straight lines of solubility-pH profile (Figure 3), read-out: pKa, graphical estimation",7.2
same,Stability under oxidizing conditions,[9],degradation increased with the temperature
same,solubility at 24 h,"[6]; pH 1.2, simulated gastric fluid, pH 1.2, 37 °C, 24 h agitation, read-out: Solubility",14.8 µg/mL
same,solubility at 24 h,"[6]; pH 7.4, aqueous buffer, pH 7.4, 37 °C, 24 h agitation, read-out: Solubility",30.5 µg/mL
same,solubility at 24 h,"[6]; pH 8, aqueous buffer, pH 8 borate buffer, read-out: Solubility",138 µg/mL
same,solubility at 24 h,"[6]; pH 8, aqueous buffer, pH 8 phosphate buffer, read-out: Solubility",76 µg/mL
same,solubility at 24 h,"[6]; pH 10, aqueous buffer, pH 10, 37 °C, read-out: Solubility",~2700 µg/mL
same,solubility at 24 h,"[6]; pH values lower than 7.4, 37 °C, 24 h agitation, read-out: Solubility",~16 µg/mL
same,"Solubility at pH 7.4 in comparison to pH 1.2, fold higher",[6]; present study,~2 fold
same,Solubility,"[10]; pH 1.2, 2 h of agitation",3.25 µg/mL
same,Solubility,"[10]; pH 3.5, 2 h of agitation",4.95 µg/mL
same,Solubility,"[10]; pH 7.4, 2 h of agitation",0.04 µg/mL
same,"Solubility at pH 7.4 in comparison to pH 1.2, fold lower",[10]; study by Lee et al.,approximately 99 fold
